The values below come from US20160060660A1, “BIOTECHNOLOGICAL PRODUCTION OF ITACONIC ACID” (UNIVERSITÉ DU LUXEMBOURG, priority 2013, published 2016).

Like-named read-outs stand apart in the source and are kept apart here.

Data set [1] deals with Salmonella enterica serovar Typhimurium.
Description: Salmonella enterica serovar Typhimurium bacteria were grown in liquid medium as detailed in the text in the presence different concentrations of itaconic acid or cis-aconitate (5, 10, 50, 100 mM). Growth was measured as optical density (OD) at indicated time points.
The subject of data set [2] is Mycobacterium tuberculosis H37Rv. It counts as cell-based.
Data set [3] concerns the target T1, murine IRG1 (Mus musculus, UniProt P54987).
T1 construct: made in house
T1 sequence (P54987 1-488): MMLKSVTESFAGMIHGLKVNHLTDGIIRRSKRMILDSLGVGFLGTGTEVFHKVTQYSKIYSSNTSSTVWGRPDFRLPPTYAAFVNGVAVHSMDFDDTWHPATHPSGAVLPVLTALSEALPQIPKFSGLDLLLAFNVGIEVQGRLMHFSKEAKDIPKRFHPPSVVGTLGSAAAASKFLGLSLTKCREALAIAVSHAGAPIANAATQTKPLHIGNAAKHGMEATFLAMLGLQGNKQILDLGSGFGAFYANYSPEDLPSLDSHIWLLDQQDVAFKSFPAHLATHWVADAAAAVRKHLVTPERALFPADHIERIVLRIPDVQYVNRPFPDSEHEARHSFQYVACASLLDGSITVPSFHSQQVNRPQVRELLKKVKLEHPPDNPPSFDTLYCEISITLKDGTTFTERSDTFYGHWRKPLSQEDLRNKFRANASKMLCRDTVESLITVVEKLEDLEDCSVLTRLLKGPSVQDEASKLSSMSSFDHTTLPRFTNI
In words: CAD activity assay, Michaelis-Menten kinetics of purified murine IRG1. It counts as biochemical. To be noted: substrate cis-aconitic acid 0 to 1 mmol/l, pH=6.2, 37° C., read-out: Michaelis-Menten constant KM for itaconic acid formation. The protocol:
(§1) The purified proteins were then used for enzyme activity assays. Cis-aconitic acid was used as a substrate at concentrations in the range of 0 to 1 mmol*I^−1 at pH=6.2 and 37° C. To determine the time dependent itaconic acid production, itaconic acid level was measured after 5 and 15 min of incubation. To determine the correlation between itaconic acid production and IRG1 activity, the substrate concentrations were plotted against the rate of itaconic acid formation.
(§2) Proteins produced in HEK293FT cells, which have been transfected with human and mouse pCMV6-Irg1 overexpression plasmid as well as pCMV6-Entry plasmid, were purified, separated on SDS-Page, detected with western blotting or silver staining and characterized with in-vitro enzyme assays.
(§3) Enzyme solutions were used from F1 as well as F2 and cis-aconitic acid and citric acid were used as substrates. Sampling took place 5 min and 15 min after enzyme supplementation. 95 μl enzyme solution were transferred into sampling tubes containing 230 μl methanol at −20° C. and centrifuged for 10 min at 4° C. with 16,000×g. 290 μl were dried in glass vials under vacuum and analyzed with GC-MS. […] The kinetic parameter Km of the purified enzymes was determined with Michaelis-Menten model using the statistical tool R (R Development Core Team, 2011).

The target of data set [4] is T2, human IRG1 (Homo sapiens, UniProt A6NK06).
T2 construct: made in house
T2 sequence (A6NK06 1-481): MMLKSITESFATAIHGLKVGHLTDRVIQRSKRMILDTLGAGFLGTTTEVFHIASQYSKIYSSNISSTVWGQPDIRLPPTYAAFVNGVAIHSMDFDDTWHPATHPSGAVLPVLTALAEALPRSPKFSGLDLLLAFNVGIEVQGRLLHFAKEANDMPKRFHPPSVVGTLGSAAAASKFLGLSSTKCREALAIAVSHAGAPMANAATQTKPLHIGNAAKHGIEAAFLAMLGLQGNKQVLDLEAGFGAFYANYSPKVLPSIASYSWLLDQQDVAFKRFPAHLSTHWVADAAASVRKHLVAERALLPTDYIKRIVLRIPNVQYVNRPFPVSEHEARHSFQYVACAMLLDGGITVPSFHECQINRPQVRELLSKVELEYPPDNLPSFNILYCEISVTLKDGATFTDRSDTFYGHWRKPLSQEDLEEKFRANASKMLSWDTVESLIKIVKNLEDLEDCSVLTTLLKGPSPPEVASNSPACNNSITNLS
Kind of data set: CAD activity assay, Michaelis-Menten kinetics of purified human IRG1. The note with it: substrate cis-aconitic acid 0 to 1 mmol/l, pH=6.2, 37° C., read-out: Michaelis-Menten constant KM for itaconic acid formation. The data set is classed as biochemical. The protocol:
as §1, §2, §3

The target of data set [5] is T3, Irg1 protein (Mus musculus, UniProt P54987).
T3 construct: made in house; host or cells: HEK293T
T3 sequence (P54987 1-488): T1 sequence (P54987 1-488)
Kind of data set: Cis-aconitate decarboxylase activity of extracts and purified fractions from HEK293T cells transfected with pCMV6-Entry-Irg1. To be noted: 1 mM cis-aconitate, 30° C., 40 min. It counts as biochemical. As to the method:
Protein concentration was measured by the Bradford assay using Bradford reagent (Bio-Rad). […] Reactions were stopped by addition of 900 μl methanol/water (8:1) mix. […] (Labconco).

Data set [6] has as its system human PBMCs-derived macrophages. In words: NO donor treatment of human PBMCs-derived macrophages, itaconic acid levels. To be noted: 1, 10, 100 μM, with or without LPS, 12 h. The data set is classed as cell-based. The protocol:
Human PBMCs were seeded and differentiated into macrophages as described above. Diethylamine NONOate (DEA NONOate, Sigma), an intracellular NO donor, was added at different concentrations (1, 10, 100 μM) alone or together with LPS (100 μg/ml). After 12 h of incubation, the metabolites were extracted.
After 12 h, 180 μl of medium was harvested and combined with 20 μl of 1 mM NaOH on ice to stop the dissociation reaction. Levels of nitrite formed from the reaction with H2O were determined using the Griess assay. In brief, 50 μl of medium sample or nitrite IC standard (Sigma) was pipetted in triplicate in a 96-well plate. To each well, equal volumes of 1× Griess Reagent (Sigma) were added. Absorbance was read at 540 nm and nitrite concentrations were calculated.

With `O=C(O)/C=C(/CC(=O)O)C(=O)O` [cis-aconitate, cis-aconitic acid, reference compound], the “effect on S. enterica growth” value in data set [1] (medium supplemented with cis-aconitate, acetate) is listed as “more pronounced growth”. The “effect on M. tuberculosis growth” value in data set [2] (medium supplemented with cis-aconitate, acetate or glycerol) is “more pronounced growth”. One may read the Km as the substrate concentration at which the rate is half of its maximum. Take “IRG1 mouse: Flag-tagged mouse immune-responsive gene 1 protein (SEQ ID NO 4) purified from transfected HEK293T cells”: the Km in data set [3] turned out to be 70 µM. Consider “IRG1 human: Flag-tagged human immune-responsive gene 1 protein (SEQ ID NO 2) purified from transfected HEK293T cells”, for which, in data set [4], the Km was found to be 30 µM. Regarding “FLAG-tagged Irg1 protein: FLAG-tagged Irg1 protein from HEK293T cells transfected with pCMV6-Entry-Irg1; presumably murine Irg1”, in data set [5], the cis-aconitate decarboxylase activity entry is “catalyzed the conversion of cis-aconitate to itaconic acid”.

Consider `CCN(CC)/[N+]([O-])=N/O.CCNCC` [diethylamine NONOate, Diethylamine NONOate], for which the “effect on intracellular itaconic acid levels” value in data set [6] was “could not detect any effect”. As for `C=C(CC(=O)O)C(=O)O` [itaconic acid], the “effect on S. enterica growth” value in data set [1] (glucose as carbon source) is “does not affect the bacterial growth”. Moreover, in data set [1] (liquid medium with acetate as unique carbon source), the “concentration at which significant effects on S. enterica growth were observed” value came to 10 mM. In addition, the “concentration at which growth of M. tuberculosis was completely inhibited” value in data set [2] lay within 25 to 50 mM. For the same compound, the “effect on M. tuberculosis growth” value in data set [2] (glycerol as carbon source) is given as “does not affect the bacterial growth”. In data set [2] (glycerol with 0.1 μM propionate), the “concentration inhibiting M. tuberculosis growth” value lay within 5 to 10 mM.
